Test results from PubChem BioAssay (NCI).
Where “and” joins values, the source holds several entries; their conditions need not be identical. Identical values can stand only once.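 Five compound concentrations were applied to cells in 96-well plates for 48 hours; endpoints were derived by simple linear interpolation of the resulting dose-response curve. GI50: concentration for 50% inhibition of growth. TGI denotes the concentration required for complete inhibition of growth.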

Key:
Assay in all cases: NCI-60 cell line screen, 48 h
HOP-92 NSCLC = system: HOP-92 NSCLC
SF-295 CNS = system: SF-295 CNS
KM12 colon = system: KM12 colon
A498 renal = system: A498 renal
UACC-257 melanoma = system: UACC-257 melanoma
HL-60(TB) leukemia = system: HL-60(TB) leukemia
CAKI-1 renal = system: CAKI-1 renal
UO-31 renal = system: UO-31 renal
BT-549 breast = system: BT-549 breast
NCI-H460 lung = system: NCI-H460 lung

SMILES	GI50 (HOP-92 NSCLC)	TGI (HOP-92 NSCLC)	GI50 (SF-295 CNS)	TGI (SF-295 CNS)	GI50 (KM12 colon)	TGI (KM12 colon)	GI50 (A498 renal)	TGI (A498 renal)	GI50 (UACC-257 melanoma)	TGI (UACC-257 melanoma)	GI50 (HL-60(TB) leukemia)	TGI (HL-60(TB) leukemia)	GI50 (CAKI-1 renal)	TGI (CAKI-1 renal)	GI50 (UO-31 renal)	TGI (UO-31 renal)	GI50 (BT-549 breast)	TGI (BT-549 breast)	GI50 (NCI-H460 lung)	TGI (NCI-H460 lung)
COc1ccc(/C=C(\C#N)n2nnc3c(F)cccc32)cc1	0.293 µM	42.9 µM	0.275 µM	2.72 µM	0.39 µM	> 100 µM	0.22 µM	1.04 µM	1.16 µM	> 100 µM	0.229 µM	0.82 µM	0.122 µM	> 100 µM	0.573 µM	> 100 µM	0.433 µM	> 34.6 µM	0.413 µM	> 100 µM
COC(=O)c1cncc(/C=C/c2c(C)cc(O)cc2C)c1	4.97 µM	> 22.1 µM	> 19.1 µM	> 25 µM	7.76 µM	24.6 µM	11 µM	> 25 µM	14.6 µM	> 25 µM	2.25 µM	5.96 µM	> 16.2 µM	> 25 µM	14.5 µM	> 25 µM	> 20.1 µM	> 25 µM	8.95 µM	> 25 µM
O=C(/C=C/c1cccc(O)c1)c1cccc(-n2cc(-c3ccccc3)[nH]c2=O)c1	3.57 µM	13.8 µM	5.77 µM	11.8 µM	1.78 µM	3.46 µM	12.3 µM	24.9 µM	8.89 µM	21.8 µM	3.27 µM	17.5 µM	4.95 µM	10.5 µM	1.99 µM	7.02 µM	3.57 µM	9.79 µM	2.84 µM	7.4 µM
COC(=O)CCCCC(=O)c1c(C)[nH]c(/C=C2\N=C(c3ccc[nH]3)C=C2OC)c1C	0.414 µM	1.5 µM	1.52 µM	3.05 µM	0.54 µM	1.96 µM	2.49 µM	6.39 µM	1.73 µM	3.33 µM	0.273 µM	1.03 µM	1.03 µM	2.49 µM	0.334 µM	1.24 µM	0.418 µM	1.85 µM	3.03 µM	10.1 µM
CSc1nc2sc3c(c2c(=O)n1-c1ccc(C(C)C)cc1)CCC(=O)C3	2.21 µM	5.24 µM	2.2 µM	4.76 µM	1.9 µM	3.95 µM	20.4 µM	82.7 µM	3.21 µM	9.81 µM	2.72 µM	7.57 µM	2.38 µM	6.03 µM	1.57 µM	3.26 µM	2.94 µM	8.36 µM	2.27 µM	5.1 µM
c1ccc2c(c1)Nc1ccncc1S2	8.07 µM	71.6 µM	14.7 µM	68.8 µM	14.2 µM	42.5 µM	5.13 µM	24.4 µM	31.1 µM	> 100 µM	19.4 µM	75.4 µM	11.4 µM	56 µM	12.7 µM	74 µM	29.6 µM	> 100 µM	18.2 µM	49.7 µM
CC(C)(Br)C(=O)C(Br)Br	4 µM	3.16 µM and 8.12 µM	21.1 µM	32.8 µM and 63.3 µM	5.8 µM	30.8 µM and 11.7 µM	–	> 54.4 µM	5.21 µM	22.4 µM and 9.43 µM	6.35 µM	–	5.21 µM	3.81 µM and 9.43 µM	5.5 µM	31.4 µM and 9.8 µM	–	9.13 µM	5.75 µM	34.4 µM and 11.4 µM
Oc1ccc(C(c2ccc(O)cc2)c2ccc(Br)cn2)cc1	0.25 µM	1.44 µM	0.331 µM	1.63 µM	0.454 µM	18.9 µM	0.6 µM	16.1 µM	17.4 µM	61.5 µM	10.6 µM	44 µM	20.1 µM	> 100 µM	6.14 µM	40.7 µM	0.26 µM	0.788 µM	20.7 µM	49.1 µM
COc1ncnc(NS(=O)(=O)c2ccc(N=C3C(=O)N(CN4CCN(c5c(F)cc6c(=O)c(C(=O)O)cn(C7CC7)c6c5OC)CC4C)c4ccc(Br)cc43)cc2)c1OC (centres undefined)	0.176 µM	0.477 µM	20.8 µM	> 50 µM	4.02 µM	15.9 µM	11.3 µM	> 50 µM	16.9 µM	> 50 µM	8.4 µM	> 50 µM	6.21 µM	> 50 µM	> 50 µM	> 50 µM	6.57 µM	19.9 µM	3.99 µM	19.5 µM
Cc1cc[n+]2c(c1)-c1cc(C)cc[n+]1CC2	–	> 100 µM	–	> 100 µM	–	> 100 µM	–	> 100 µM	–	> 100 µM	–	> 100 µM	–	> 100 µM	–	> 100 µM	–	> 100 µM	–	> 100 µM
Cn1cc(C2=C(c3cccc(OC[C@@H](O)CO)c3)C(=O)NC2=O)c2ccccc21	> 25 µM	> 25 µM	3.59 µM	> 25 µM	11 µM	> 25 µM	0.656 µM	> 5.77 µM	> 25 µM	> 25 µM	> 25 µM	> 25 µM	15.3 µM	> 25 µM	> 19.1 µM	> 25 µM	12.3 µM	> 25 µM	> 25 µM	> 25 µM
Cc1cc(N=Nc2ccccc2C)ccc1N	7.41 µM	25.1 µM and 26.8 µM	–	25.2 µM and 31.3 µM	7.37 µM	23.2 µM and 21.5 µM	4.38 µM	44.3 µM and 23.8 µM	20.2 µM	38 µM and 44.9 µM	0.486 µM	–	7.38 µM	46.5 µM and 28.7 µM	0.874 µM	13.2 µM and 11.3 µM	–	23.2 µM	12.3 µM	17.7 µM and 31.2 µM
Cc1ccc(-c2nc([P+](c3ccccc3)(c3ccccc3)c3ccccc3)c(S(=O)(=O)c3ccc(C)cc3)o2)cc1	1.43 µM	3.13 µM	2.91 µM	10.7 µM	1.75 µM	3.83 µM	1.61 µM	4.77 µM	1.7 µM	3.7 µM	1.67 µM	4.38 µM	1.36 µM	2.71 µM	1.32 µM	2.6 µM	1.61 µM	3.1 µM	1.64 µM	3.43 µM
C[C@]12CC[C@@H]3c4cc(OC(F)F)c(OS(N)(=O)=O)cc4CC[C@H]3[C@@H]1CC[C@@H]2O	1.64 µM	28.6 µM	0.252 µM	1.03 µM	0.422 µM	16.6 µM	0.199 µM	0.86 µM	3.76 µM	25.8 µM	0.338 µM	2.49 µM	0.485 µM	44.1 µM	0.769 µM	26.6 µM	0.901 µM	16.9 µM	0.401 µM	11.3 µM
COc1ccc(-c2nc(/C=C3\SC(=NCc4ccccc4)NC3=O)c3ccccn23)cc1	0.853 µM	3.42 µM	2.25 µM	7.62 µM	0.846 µM	2.3 µM	1.51 µM	6.56 µM	1.52 µM	3.51 µM	2.1 µM	5.11 µM	1.76 µM	3.55 µM	1.49 µM	3 µM	1.38 µM	3.1 µM	0.666 µM	2.24 µM
c1ccc2cc(-c3n(Cc4ccc5ccccc5n4)c4ccccc4[n+]3Cc3ccc4ccccc4n3)ccc2c1	0.136 µM	0.517 µM	0.301 µM	1.09 µM	0.321 µM	1.21 µM	0.121 µM	0.801 µM	0.275 µM	1.04 µM	0.152 µM	0.462 µM	0.655 µM	2 µM	1.34 µM	2.66 µM	0.316 µM	1.25 µM	0.361 µM	1.31 µM
N#CCN1CCn2c1nsc2=S	> 100 µM	> 100 µM	> 100 µM	> 100 µM	88.9 µM	> 100 µM	> 100 µM	> 100 µM	> 100 µM	> 100 µM	20.2 µM	> 100 µM	> 100 µM	> 100 µM	44.8 µM	> 100 µM	> 100 µM	> 100 µM	> 100 µM	> 100 µM
OCCNC1c2cc(Cl)ccc2-c2c(Cl)cc(Cl)cc21 (centres undefined)	–	55.8 µM	–	> 100 µM	–	> 100 µM	–	> 100 µM	–	> 100 µM	–	51.4 µM	–	> 100 µM	–	> 100 µM	–	> 100 µM	–	63.4 µM
C[N+](C)(C)CC1CCCC1=O (centres undefined)	–	2.66 µM	–	36.4 µM	–	20.6 µM	–	17.7 µM	–	13.3 µM	–	> 20.2 µM	–	6.61 µM	–	8.79 µM	–	2.32 µM	–	38.9 µM
CCC1(O)C(=O)OCc2c1cc1n(c2=O)Cc2cc3c(NC(=O)CN)cccc3nc2-1 (centres undefined)	2.47 µM	24.1 µM	0.368 µM	28 µM	1.87 µM	44.7 µM	0.883 µM	5.65 µM	2.09 µM	24.3 µM	0.129 µM	1.64 µM	0.205 µM	8.37 µM	0.595 µM	4.82 µM	0.477 µM	> 26.2 µM	0.122 µM	3.88 µM
COC1C(N)C(OC2C(Oc3cccc4c(O)c5c(=O)oc6ccc(C)c7c(=O)oc(c34)c5c67)OC(C)C(O)C2(C)O)OC(C)C1O (centres undefined)	–	0.0653 µM	–	1.21 µM	–	0.366 µM	–	0.155 µM	–	0.277 µM	–	9.48 µM	–	1.45 µM	–	0.82 µM	–	0.214 µM	–	0.139 µM
Nc1nc(Nc2ccccc2SSc2ccccc2Nc2nc(N)nc(C(Cl)(Cl)Cl)n2)nc(C(Cl)(Cl)Cl)n1	4.33 µM	21.4 µM	1.99 µM	4.75 µM	4.05 µM	28.9 µM	24.3 µM	88.8 µM	11.7 µM	92.9 µM	2.55 µM	12.1 µM	3.01 µM	10.5 µM	1.56 µM	3 µM	3.34 µM	35.7 µM	4 µM	14.7 µM
COc1cc2nc(-c3cc(F)ccc3O)nc(N[C@@H]3CNC[C@H]3C(C)(C)O)c2cc1OC	0.465 µM	1.9 µM	1.98 µM	4.14 µM	1.73 µM	3.18 µM	1.12 µM	2.6 µM	1.69 µM	3.15 µM	1.78 µM	4.2 µM	1 µM	2.54 µM	1.56 µM	3.21 µM	1.64 µM	3.09 µM	1.83 µM	3.47 µM
Oc1cccc2ccc(N/N=C/c3cc(CN4CCOCC4)c(O)c4ncccc34)nc12	0.0212 µM	0.0678 µM	0.0471 µM	5.27 µM	0.0267 µM	3.41 µM	0.376 µM	4.06 µM	0.0368 µM	0.44 µM	0.0298 µM	1.49 µM	0.0506 µM	1.59 µM	0.0124 µM	1.24 µM	0.0363 µM	2.78 µM	< 0.0104 µM	1.2 µM
Cc1cccc2c3c(sc12)C(c1ccc(Cl)cc1)C(C#N)=C(N)O3 (centres undefined)	1.32 µM	19 µM	0.26 µM	0.992 µM	0.428 µM	10.7 µM	0.211 µM	1.2 µM	11.8 µM	27.3 µM	0.3 µM	1.21 µM	0.295 µM	14.5 µM	0.664 µM	16.2 µM	0.98 µM	6.9 µM	0.37 µM	3.92 µM
O=C(CCCCCCN1CC(=O)N2[C@@H](c3ccc(Cl)c(Cl)c3)c3[nH]c4ccccc4c3C[C@H]2C1=O)NO	1.59 µM	7.41 µM	3.66 µM	8 µM	3.8 µM	9.29 µM	5.28 µM	9.92 µM	3.81 µM	18.2 µM	1.11 µM	4.32 µM	3.43 µM	8.71 µM	3.52 µM	8.86 µM	4.41 µM	14.2 µM	2.77 µM	9.15 µM
